US20080287374A1, “BREAST CANCER-RESISTANT PROTEIN INHIBITOR” (KABUSHIKI KAISHA YAKULT HONSHA, priority 2003, published 2008)
In brackets after ≈: the same amount, converted by molar mass.

What was measured:
[1] = test system: MES-SA/Dx5 cell line; assay: Effect of flavonoid on multidrug (paclitaxel) resistance of MES-SA/Dx5 cell line; type: cell-based, human; details: concentration of flavonoid for 50% reduction of relative resistance value to paclitaxel, MES-SA/Dx5 (P-glycoprotein overexpression), 48 hours; for EC50: Homo sapiens, read-out: Resistance overcoming effect EC50
Procedure: Human uterine cancer MES-SA cell line or MES-SA/Dx5 cell line which had acquired multidrug resistance through overexpression of P-glycoprotein (Cancer Res. 45, 4091-4096 (1985)) was suspended in 10% FBS/DMEM, and the resultant suspension was inoculated into a 96-well microplate, followed by culturing at 5% CO2 and 37° C. overnight (3×10^3 cells/50 μL/well). Thereafter, a solution of a flavonoid and paclitaxel in 10% FBS/DMEM (25 μL) was added to each of the wells, followed by culturing at 5% CO2 and 37° C. for 48 hours. After completion of culturing, the number of viable cells was counted by use of TetraColor ONE according to the attached instruction manual.

[2] = test system: A549/SN-38-4 cell line; assay: Effect of flavonoid in overcoming anticancer drug (SN-38) resistance of A549/SN-38 cell line; type: cell-based, human; details: concentration of flavonoid for 50% reduction of relative resistance value to SN-38, A549/SN-38-4, 48 hours; for EC50: Homo sapiens
Procedure: The A549 cell line or the A549/SN-38-4 cell line was suspended in 10% FBS/Ham's F-12, and the resultant suspension was inoculated into a 96-well microplate, followed by culturing at 5% CO2 and 37° C. overnight (2×10^3 cells/50 μL/well). Thereafter, a solution of a flavonoid and SN-38 in 10% FBS/Ham's F-12 (25 μL) was added to each of the wells, followed by culturing at 5% CO2 and 37° C. for 48 hours. After completion of culturing, the number of viable cells was counted by use of TetraColor ONE according to the attached instruction manual.

With `COc1ccc(-c2cc(=O)c3c(O)c(OC)c(OC)cc3o2)cc1O` [Compound 1-6, 3′,5-Dihydroxy-4′,6,7-trimethoxyflavone] the EC50 [1] was over 1 µg/mL and the EC50 [2] was 0.017 µg/mL (≈ 0.0494 µM).

`Cc1ccc(-c2cc(=O)c3cc(Cl)cc(Cl)c3o2)cc1` [Compound 1-18, 6,8-Dichloro-4′-methylflavone] was tested, and the EC50 [1] was over 1 µg/mL and the EC50 [2] was 0.14 µg/mL (≈ 0.459 µM).

Work on `O=c1cc(-c2ccccc2)oc2cc(O)cc(O)c12` [Compound 1-3, 5,7-Dihydroxyflavone] yielded an EC50 [1] of over 1 µg/mL and an EC50 [2] of 0.1 µg/mL (≈ 0.393 µM).

`COc1ccc(-c2cc(=O)c3c(OC)c(OC)c(OC)cc3o2)cc1O` [Compound 1-13, 3′-Hydroxy-4′,5,6,7-tetramethoxyflavone] was tested, and the EC50 [1] was over 1 µg/mL and the EC50 [2] was 0.11 µg/mL (≈ 0.307 µM).

`COc1ccc(-c2coc3cc(O)cc(O)c3c2=O)cc1` [Compound 4-1, 5,7-Dihydroxy-4′-methoxyisoflavone] was tested, and the EC50 [1] was over 1 µg/mL and the EC50 [2] was 0.33 µg/mL (≈ 1.16 µM).

Work on `COc1cc(O)c2c(=O)cc(-c3ccc(O)cc3)oc2c1` [Compound 1-1, 5,4′-Dihydroxy-7-methoxyflavone] yielded an EC50 [1] of over 1 µg/mL and an EC50 [2] of 0.017 µg/mL (≈ 0.0598 µM).

`COc1cc2oc(-c3ccc(OC4O[C@H](CO)[C@@H](O)[C@H](O)[C@H]4O)cc3)cc(=O)c2c(O)c1OC` (some centres unmarked) [Compound 1-26, 5-Hydroxy-6,7-dimethoxyflavone-4′-glucoside] was tested, and the “Resistance overcoming effect EC50” value [2] was 0.14 µg/mL.

Molecule `O=c1cc(-c2ccc(O)c(O)c2)oc2cc(O)cc(O)c12` [Compound 1-8, 3′,4′,5,7-Tetrahydroxyflavone] has an EC50 [1] of over 1 µg/mL and an EC50 [2] of 0.46 µg/mL (≈ 1.61 µM).

In the case of `COc1cc2oc(-c3ccc(O)cc3O)c(CC=C(C)C)c(=O)c2c(O)c1C=CC(C)C` [Compound 1-29, 2′,4′,5-Trihydroxy-7-methoxy-6-(3-methyl-1-butenyl)-3-(3-methyl-2-butenyl)-flavone], the EC50 [2] is reported as 0.23 µg/mL (≈ 0.527 µM).

In the case of `COc1ccc(C2CC(=O)c3c(O)cc(O)cc3O2)cc1O` (centres unmarked) [Compound 2-1, 3′,5,7-Trihydroxy-4′-methoxyflavanone], the EC50 [1] is reported as over 1 µg/mL and the EC50 [2] is reported as 0.15 µg/mL (≈ 0.496 µM).

`COc1cc(N)c(-c2cc(=O)c3c(OC)c(OC)c(OC)c(OC)c3o2)cc1OC` [Compound 1-5, 2′-Amino-4′,5,5′,6,7,8-hexamethoxyflavone] gave an EC50 [1] of over 1 µg/mL and an EC50 [2] of 0.081 µg/mL (≈ 0.194 µM).

For `O=c1c(O)c(-c2ccc(O)cc2)oc2cc(O)cc(O)c12` [Compound 1-7, 3,4′,5,7-Tetrahydroxyflavone], the EC50 [1] was over 1 µg/mL and the EC50 [2] was 0.13 µg/mL (≈ 0.454 µM).

With `COc1cc(O)c2c(=O)cc(-c3ccc(OC4O[C@H](CO)[C@@H](O)[C@H](O)[C@H]4O)cc3)oc2c1` (some centres unmarked) [Compound 1-27, 5-Hydroxy-7-methoxyflavone-4′-glucoside] the “Resistance overcoming effect EC50” value [2] was 0.042 µg/mL.

In the case of `COc1cc(O)c2c(=O)cc(-c3ccc(OC)c(OC)c3)oc2c1` [Compound 1-23, 5-Hydroxy-3′,4′,7-trimethoxyflavone], the EC50 [2] is reported as 0.007 µg/mL (≈ 0.0213 µM).

`COc1cc(O)c(C(=O)/C=C/c2cc(OC)c(OC)cc2OC)c(OC)c1` [Compound 3-6, 2′-Hydroxy-2,4,4′,5,6′-pentamethoxychalcone] was tested, and the EC50 [1] was over 1 µg/mL and the EC50 [2] was 0.0074 µg/mL (≈ 0.0198 µM).

With `O=c1cc(-c2ccc(O)cc2)oc2cc(OC3O[C@H](CO)[C@@H](O)[C@H](O)[C@H]3O)cc(O)c12` (some centres unmarked) [Compound 1-10, 4′,5-Dihydroxyflavone-7-glucoside] the “Resistance overcoming effect EC50” value [1] was over 1.0 µg/mL and the “Resistance overcoming effect EC50” value [2] was 0.17 µg/mL.

For `CC(C)=CC1Oc2cc(O)ccc2-c2oc3cc(O)c(C=CC(C)C)c(O)c3c(=O)c21` (centres unmarked) [Compound 5-1, 6H,7H-[1]benzopyrano[4,3-b][1]benzopyran-7-one,3,8,10-trihydroxy-9-(3-methyl-1-butenyl)-6-(2-methyl-1-propenyl)], the “Resistance overcoming effect EC50” value [2] was 0.18 µg/mL.

Work on `COc1cc(/C=C/C(=O)c2cc(Br)cc(Cl)c2O)cc(OC)c1OC` [Compound 3-7, 5′-Bromo-3′-chloro-2′-hydroxy-3,4,5-trimethoxychalcone] yielded an EC50 [1] of over 1 µg/mL and an EC50 [2] of 0.65 µg/mL (≈ 1.52 µM).

In the case of `COc1ccc(-c2oc3c(OC)c(OC)c(OC)c(OC)c3c(=O)c2OC)cc1OC` [Compound 1-24, 3,3′,4′,5,6,7,8-Heptamethoxyflavone], the EC50 [2] is reported as 0.054 µg/mL (≈ 0.125 µM).

For `COc1ccc(-c2coc3cc(OC4O[C@H](CO)[C@@H](O)[C@H](O)[C@H]4O)cc(O)c3c2=O)cc1` (some centres unmarked) [Compound 4-2, 5-Hydroxy-4′-methoxyisoflavone-7-glucoside], the “Resistance overcoming effect EC50” value [1] was over 1.0 µg/mL and the “Resistance overcoming effect EC50” value [2] was 0.84 µg/mL.

`COc1ccc(-c2oc3ccccc3c(=O)c2OC)cc1` [Compound 1-17, 3,4′-Dimethoxyflavone] showed an EC50 [1] of over 1 µg/mL and an EC50 [2] of 0.06 µg/mL (≈ 0.213 µM).

In the case of `CC(C)=CCc1c(-c2ccc(O)cc2O)oc2c3c(cc(O)c2c1=O)OC(C)(C)C=C3` [Compound 1-28, 4H,8H-Benzo[1,2-b:3,4-b′]dipyran-4-one,2-(2,4-dihydroxyphenyl)-5-hydroxy-8,8-dimethyl-3-(3-methyl-2-butenyl)], the “Resistance overcoming effect EC50” value [2] is reported as 2.0 µg/mL.

Work on `COc1cc(O)c2c(=O)c(OC)c(-c3ccc(O)c(OC)c3)oc2c1` [Compound 1-22, 4′,5-Dihydroxy-3,3′,7-trimethoxyflavone] yielded an EC50 [2] of 0.046 µg/mL (≈ 0.134 µM).

`CC(C)=CCc1c2c(c(O)c3c1OC(c1ccc(O)cc1)CC3=O)C=CC(C)(C)O2` (centres unmarked) [Compound 2-3, 2H,6H-Benzo[1,2-b:5,4-b′]dipyran-6-one,7,8-dihydro-5-hydroxy-8-(4-hydroxyphenyl)-2,2-dimethyl-10-(3-methyl-2-butenyl)] was tested, and the “Resistance overcoming effect EC50” value [2] was 0.067 µg/mL.

`COc1cc(-c2cc(=O)c3c(O)cc(O)cc3o2)cc(OC)c1OC` [Compound 1-2, 5,7-Dihydroxy-3′,4′,5′-trimethoxyflavone] gave an EC50 [1] of over 1 µg/mL and an EC50 [2] of 0.048 µg/mL (≈ 0.139 µM).

With `COc1ccc(-c2cc(=O)c3cc(OC)ccc3o2)c(OC)c1` [Compound 1-16, 2′,4′,6-Trimethoxyflavone] the EC50 [1] was over 1 µg/mL and the EC50 [2] was 0.098 µg/mL (≈ 0.314 µM).

For `COc1ccc(-c2cc(=O)c3ccccc3o2)cc1OC` [Compound 1-4, 3′,4′-Dimethoxyflavone], the EC50 [1] was over 1 µg/mL and the EC50 [2] was 0.03 µg/mL (≈ 0.106 µM).

With `COc1cc(-c2cc(=O)c3c(OC)c(OC)c(OC)c(OC)c3o2)c([N+](=O)[O-])cc1OC` [Compound 1-20, 2′-Nitro-4′,5,5′,6,7,8-hexamethoxyflavone] the EC50 [1] was over 1 µg/mL and the EC50 [2] was 0.75 µg/mL (≈ 1.68 µM).

With `COc1ccc(/C=C/C(=O)c2c(O)cc(OC)cc2O)cc1` [Compound 3-8, 2′,6′-Dihydroxy-4,4′-dimethoxychalcone] the EC50 [1] was over 1 µg/mL and the EC50 [2] was 0.79 µg/mL (≈ 2.63 µM).

With `COc1ccc(/C=C/C(=O)c2ccccc2)cc1OC` [Compound 3-2, 3,4-Dimethoxychalcone] the EC50 [1] was over 1 µg/mL and the EC50 [2] was 0.23 µg/mL (≈ 0.857 µM).

`COc1cc(O)c2c(c1)OC(c1ccc(O)cc1)CC2=O` (centres unmarked) [Compound 2-2, 4′,5-Dihydroxy-7-methoxyflavanone] gave an EC50 [1] of over 1 µg/mL and an EC50 [2] of 0.48 µg/mL (≈ 1.68 µM).

Molecule `CCOc1cc(O)c(C(=O)/C=C/c2ccc(OCC)c(OCC)c2)c(OCC)c1` [Compound 3-4, 2′-Hydroxy-3,4,4′,6′-tetraethoxychalcone] has an EC50 [1] of over 1 µg/mL and an EC50 [2] of 0.023 µg/mL (≈ 0.0574 µM).

Work on `O=c1cc(-c2ccc(O)cc2)oc2cc(O)cc(O)c12` [Compound 1-9, 4′,5,7-Trihydroxyflavone] yielded an EC50 [1] of over 1 µg/mL and an EC50 [2] of 0.12 µg/mL (≈ 0.444 µM).

Molecule `COc1ccc(/C=C/C(=O)c2ccccc2O)cc1OC` [Compound 3-3, 2′-Hydroxy-3,4-dimethoxychalcone] has an EC50 [1] of over 1 µg/mL and an EC50 [2] of 0.16 µg/mL (≈ 0.563 µM).

`COc1cc2oc(-c3ccccc3)cc(=O)c2c(O)c1O` [Compound 1-12, 5,6-Dihydroxy-7-methoxyflavone] showed an EC50 [1] of over 1 µg/mL and an EC50 [2] of 0.074 µg/mL (≈ 0.26 µM).

With `COc1ccc(-c2cc(=O)c3c(OC)c(OC)c(OC)cc3o2)cc1OC` [Compound 1-25, 3′,4′,5,6,7-Pentamethoxyflavone] the EC50 [2] was 0.53 µg/mL (≈ 1.42 µM).
